We go through 14 compounds from the supplement of paper PMC11061612.

SMILES strings stand for the structures.

The subject of experiment [1] is U-266 (Plasma Cell Myeloma). In words: Bliss excess, mean over the matrix (fraction); higher = more synergy. The essentials: (§1)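 After 24 hours at 37°C and 5% CO2 in 1536-well plates, cells in DMEM/F12 or RPMI plus 10% FBS received two-drug dose matrices for 72 hours. Viability came from CellTiter-Glo 2.0 luminescence and was scaled as inhibition, anchored at 0 by vehicle wells and at 1 by blank wells. Combination Emax is taken as the second-highest inhibition in the matrix, and Bliss excess as the observed combination effect less EA + EB − EA·EB, with EA and EB the single-agent effects.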

Experiment [2] relates to NCI-H211 (Small Cell Lung Carcinoma). The experiment is described as above. An outline of the steps: as §1
Experiment [3] concerns SK-N-FI (Neuroblastoma). The description is as above. The essentials: as §1
In experiment [4] the test system is NCI-H211 (Small Cell Lung Carcinoma). The experiment is described as follows: combination Emax (second highest fraction inhibited in the dose matrix, 72 h); higher = more inhibition; extreme values may be limits of the assay. An outline of the steps:
as §1
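Wherever Bliss excess, mean over the matrix is given: after 72 h of two-drug dosing.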

Take `CS(=O)(=O)CCNCc1ccc(-c2ccc3ncnc(Nc4ccc(OCc5cccc(F)c5)c(Cl)c4)c3c2)o1` [Lapatinib] + C[C@@H](Oc1cc(-c2cnn(C3CCNCC3)c2)cnc1N)c1c(Cl)ccc(F)c1Cl [Crizotinib] (first compound max 10 µM, 7x7, partner max 10 µM): the Bliss excess in experiment [1] is -0.0574; in experiment [2], -0.0329; in experiment [3], -0.0365. In addition, the “combination Emax” value in experiment [4] was found to be 0.948.

As for `Cn1cnc2c(F)c(Nc3ccc(Br)cc3Cl)c(C(=O)NOCCO)cc21` [Selumetinib] + C=CCn1c(=O)c2cnc(Nc3ccc(N4CCN(C)CC4)cc3)nc2n1-c1cccc(C(C)(C)O)n1 [AZD1775] (first compound max 10 µM, partner max 1 µM), the Bliss excess was 0.0598 in experiment [1], 0.0248 in experiment [2] and -0.0433 in experiment [3]. In addition, the “combination Emax” value in experiment [4] came out at 0.831.

As for `COc1nnc2ccc(N3CCC(c4ccc(OCCN5CCN(C)C(=O)[C@H]5C)cc4)CC3)nn12` [AZD5153] + CC1(C)CCC(CN2CCN(c3ccc(C(=O)NS(=O)(=O)c4ccc(NCC5CCOCC5)c([N+](=O)[O-])c4)c(Oc4cnc5[nH]ccc5c4)c3)CC2)=C(c2ccc(Cl)cc2)C1 [Venetoclax] (first compound max 1 µM, 7x7, partner max 1 µM), the Bliss excess in experiment [1] was -0.157; in experiment [2] it was 0.03; in experiment [3], -0.0581. In experiment [4], the “combination Emax” value was determined as 1.

For `C[C@@H](c1ccc2nccn2c1)n1nnc2ncc(-c3cnn(C)c3)nc21` [Savolitinib] + CC1(C)CCC(CN2CCN(c3ccc(C(=O)NS(=O)(=O)c4ccc(NCC5CCOCC5)c([N+](=O)[O-])c4)c(Oc4cnc5[nH]ccc5c4)c3)CC2)=C(c2ccc(Cl)cc2)C1 [Venetoclax] (first compound max 1 µM, 7x7, partner max 1 µM), the values for the Bliss excess in experiment [1], in experiment [2] and in experiment [3] were -0.0118, 0.0317 and -0.0537, respectively. In experiment [4], the “combination Emax” value stood at 0.744.

For the compound `C[C@@H](c1ccc2nccn2c1)n1nnc2ncc(-c3cnn(C)c3)nc21` [Savolitinib] + Cc1c2c(nn1C)CSCc1cc(n(C)n1)CSc1cc(c3ccccc3c1)OCCCc1c(C(=O)O)n(C)c3c-2c(Cl)ccc13 [AZD5991] (first compound max 1 µM, 7x7, partner max 1 µM), the Bliss excess was -0.0655 in experiment [1], 0.033 in experiment [2] and -0.0077 in experiment [3]. Moreover, the “combination Emax” value in experiment [4] came to 0.859.

On to `Cn1cnc2c(F)c(Nc3ccc(Br)cc3Cl)c(C(=O)NOCCO)cc21` [Selumetinib] + C[C@@H]1COCCN1C2=NC(=NC(=C2)C3(CC3)[S@](=N)(=O)C)C4=C5C=CNC5=NC=C4 [AZD6738] (first compound max 10 µM, 7x7, partner max 10 µM), for which the figures for the Bliss excess in experiment [1], in experiment [2] and in experiment [3] were -0.0303, -0.0285 and 0.0325, respectively. For the same compound, the “combination Emax” value in experiment [4] is 0.606.

On to `NC1(C(=O)N[C@@H](CCO)c2ccc(Cl)cc2)CCN(c2ncnc3[nH]ccc23)CC1` [Capivasertib] + Cn1cnc2c(F)c(Nc3ccc(Br)cc3Cl)c(C(=O)NOCCO)cc21 [Selumetinib] (first compound max 10 µM, 7x7, partner max 10 µM), for which the results for the Bliss excess in experiment [1], in experiment [2] and in experiment [3] were 0.0745, 0.119 and -0.0313, respectively. Further, in experiment [4], the “combination Emax” value was found to be 0.568.

Turning to `Cc1nc(Nc2ncc(C(=O)Nc3c(C)cccc3Cl)s2)cc(N2CCN(CCO)CC2)n1` [Dasatinib] + CC(=O)Nc1cccc(-n2c(=O)n(C3CC3)c(=O)c3c(Nc4ccc(I)cc4F)n(C)c(=O)c(C)c32)c1 [Trametinib] (first compound max 2 µM, 7x7, partner max 1 µM), the Bliss excess in experiment [1] came out at 0.0609; in experiment [2], 0.0556; in experiment [3], 0.0118. Further, the “combination Emax” value in experiment [4] came to 0.456.

For `CC1(C)CCC(CN2CCN(c3ccc(C(=O)NS(=O)(=O)c4ccc(NCC5CCOCC5)c([N+](=O)[O-])c4)c(Oc4cnc5[nH]ccc5c4)c3)CC2)=C(c2ccc(Cl)cc2)C1` [Venetoclax] + Cc1cc2ncnn2cc1Nc1ncc2c(n1)n(C1CCOCC1)c(=O)n2C [AZD7648] (first compound max 1 µM, 7x7, partner max 10 µM), the Bliss excess in experiment [1] was 0.0148; in experiment [3] it was 0.0047.

`CC(=O)c1c(C)c2cnc(Nc3ccc(N4CCNCC4)cn3)nc2n(C2CCCC2)c1=O` [Palbociclib] + Cc1c2c(nn1C)CSCc1cc(n(C)n1)CSc1cc(c3ccccc3c1)OCCCc1c(C(=O)O)n(C)c3c-2c(Cl)ccc13 [AZD5991] (first compound max 10 µM, 7x7, partner max 1 µM): the Bliss excess in experiment [1] was -0.019; in experiment [2], 0.118; in experiment [3] it was -0.0412. Also, the “combination Emax” value in experiment [4] was determined as 0.905.

On to `COc1nnc2ccc(N3CCC(c4ccc(OCCN5CCN(C)C(=O)[C@H]5C)cc4)CC3)nn12` [AZD5153] + Cc1c2c(nn1C)CSCc1cc(n(C)n1)CSc1cc(c3ccccc3c1)OCCCc1c(C(=O)O)n(C)c3c-2c(Cl)ccc13 [AZD5991] (first compound max 1 µM, 7x7, partner max 1 µM), for which the Bliss excess in experiment [1] is -0.106; in experiment [2] it was -0.0175; in experiment [3] it was -0.0656. Moreover, the “combination Emax” value in experiment [4] turned out to be 1.

Consider `CN(CCO)CC[C@H](CSc1ccccc1)Nc1ccc(S(=O)(=O)NC(=O)c2ccc(N3CCC([C@@H](O)c4ccccc4-c4ccc(Cl)cc4)CC3)cc2)cc1S(=O)(=O)C(F)(F)F` [AZD4320] + C[C@@H](Nc1cc(F)cc(F)c1)c1cc(C(=O)N(C)C)cc2c(=O)cc(N3CCOCC3)oc12 [AZD8186] (first compound max 1 µM, 7x7, partner max 3 µM), for which the results for the Bliss excess in experiment [1] and in experiment [3] were -0.0077 and -0.0165, respectively.

Turning to `CN(CCO)CC[C@H](CSc1ccccc1)Nc1ccc(S(=O)(=O)NC(=O)c2ccc(N3CCC([C@@H](O)c4ccccc4-c4ccc(Cl)cc4)CC3)cc2)cc1S(=O)(=O)C(F)(F)F` [AZD4320] + CCN(CCO)CCCOc1ccc2c(Nc3cc(CC(=O)Nc4cccc(F)c4)[nH]n3)ncnc2c1 [AZD2811] (first compound max 1 µM, 7x7, partner max 1 µM), the results for the Bliss excess in experiment [1] and in experiment [3] were 0.113 and -0.022, respectively.

For `CN(CCO)CC[C@H](CSc1ccccc1)Nc1ccc(S(=O)(=O)NC(=O)c2ccc(N3CCC([C@@H](O)c4ccccc4-c4ccc(Cl)cc4)CC3)cc2)cc1S(=O)(=O)C(F)(F)F` [AZD4320] + C[C@@H]1COCCN1C2=NC(=NC(=C2)C3(CC3)[S@](=N)(=O)C)C4=C5C=CNC5=NC=C4 [AZD6738] (first compound max 1 µM, 7x7, partner max 10 µM), the figures for the Bliss excess in experiment [1] and in experiment [3] were -0.0133 and -0.0299, respectively.
